{"source": "patent US12268682B2", "about": "“Anticancer drug FL118 formulation for treatment of human cancer” (CANGET BIOTEKPHARMA, LLC, priority 2019, dated 2025)", "key": {"[1]": {"test_system": "primary MM cells", "assay": "Flow cytometry-based ex vivo assay using BMMNCs from MM patients", "type": "cell-based, human", "protocol": "Flow cytometry-based […] assays using BMMNCs: Cryopreserved BMMNCs derived from MM patients were incubated on a monolayer of 2×10^4 BMMSCs for 16 till 24 hours and subsequently treated with FL118 ([…]) and/or, melphalan (5-10 μM/L), bortezomib (2-3 nmol/L) for 48 hours. Concerning immunotherapy, treatment included FL118 (10 or 100 nM) and/or daratumumab, or CAR T-cells for 24 hours. BMMNC samples contained sufficient numbers of functional effector cells to induce antibody-mediated plasma cell lysis. At the end of treatment, after addition of flow-count fluorospheres (Beckman Coulter), adherent cells were detached with Accutase, blocked with human immunoglobulin (100 μg/mL, Sanquin), and stained for CD38, CD138, CD45 (Beckman Coulter) and live/dead cell marker (LIVE/DEAD Fixable Near-111; Life Technologies) to determine absolute numbers of viable MM cells using flow cytometry. The percentage lysis was then calculated using the following formula: % lysis cells=1−absolute number of viable CD138^+ CD38^+ CD45^dim MM cells in treated wells/mean absolute number of viable CD138^+ CD38^+ CD45^dim MM cells in untreated wells×100%."}, "[2]": {"test_system": "pro-apoptotic signaling, cleavage of caspase-3 and PARP", "assay": "Western blotting of FL118-treated MM cell lines", "type": "cell-based, human", "protocol": "Western blotting: Untreated or FL118 treated (16 h) MM cell lines were washed twice with ice-cold PBS. Cell pellets were then snap-frozen and stored at −80° C. until further use. Pellets were dissolved in Radioimmunoprecipitation (RIPA) lysis buffer, supplemented with protease inhibitor cocktail (Roche) and incubated on ice for 45 minutes. Lysates were centrifuged at 14000 g for 10 minutes at 4° C. and supernatant was collected. Protein concentrations were determined by a DC protein assays (Bio-Rad). Samples were separated on 4-20% Mini-protean TGX precast gels (Bio-Rad) and proteins were transferred to Immobilon-FL PVDF membrane (Merck Millipore). After 1 h blocking with Odyssey Block Buffer (LI-COR) at room temperature, membranes were incubated with primary antibodies over night at 4° C. (anti-Mcl-1, anti-survivin Santa Cruz; anti-XIAP, anti-Bcl-2, anti-PUMA, anti-p21 Waf/Cip1, anti-PARP, anti-caspase-3 Cell Signaling Technology; anti-p53 DAKO; anti-NOXA, anti-Actin Merck Millipore). Blots were visualized by Odyssey infrared imaging (LICOR Biosciences) using IRDye 680 Goat-anti-Rabbit (LI-COR Lincoln) and IRDye 800CW Goat-anti-Mouse IgG (LI-COR Lincoln) according to manufacturer's instructions. Band intensities were quantified using Odyssey software."}, "[3]": {"test_system": "UM9 MM tumors", "assay": "In vivo efficacy in humanized xenograft RAG2-/-γc-/- model", "parameters": "species or system mice", "protocol": "In vivo efficacy of FL118: The in vivo efficacy of FL118 was studied in a xenograft RAG2^−/−γc^−/− marine model in which human MM cells are grown in a humanized BM like microenvironment generated by subcutaneous inoculation of MSC coated Hybrid scaffolds (4 scaffolds per mice) as described elsewhere (Groen R W, et al. Blood 2012,120:e9-e16). 24 hours before tumor inoculation (UM9; 5×10^5 cells/scaffold) mice were pre-conditioned with 18 mg/kg Busilvex. One week after inoculation, when there was visible tumor growth in all scaffolds by BLI, mice were randomly divided in four groups which were treated as follows: (1) vehicle control (n=3); (2) 0.05 mg/kg FL118 (n=4); (3) 0.1 mg/kg FL118 (n=4); (4) 0.2 mg/kg FL118 (n=4). FL118 or vehicle was administrated i.v. daily for five times. Tumor growth was monitored by weekly BLI measurements as previously described (Groen R W, et al. Blood 2012,120:e9-e16). All animal experiments were conducted for animal experimentation and were in compliance with the Dutch Animal Experimentation Act."}, "[4]": {"test_system": "T-cells and NK-cells", "assay": "Toxicity of FL118 on immune effector cells", "type": "cell-based, human", "details": "up to 100 nM", "protocol": "Toxicity of FL118 on immune effector cells: Cryopreserved BMMNCs derived from MM patients or plasma cell leukemia (PCL) patients, were treated with various concentrations of FL118. After 24 hours, viable CD45^+ CD3^+ T-cells and CD45^+ CD56^+ CD14^− CD3^− NK-cells were enumerated by multiparameter flow cytometry. Additionally, healthy-donor peripheral blood mononuclear cells (PBMCs) were seeded in 96-well flat-bottom plates at 1×10^5 cells/well, stimulated with PMA (25 ng/mL) and ionomycin (500 ng/mL) (both Santa Cruz Biotechnology) for 24 hours, and subsequently treated with FL118 for 48 hours before determining activated CD45^+ CD3^+ CD56^− CD25^+ T-cells by flow cytometry. The percentage cell survival was then calculated using the following formula: % immune cell survival=absolute number of viable immune cells in treated wells/mean absolute number of viable immune cells in untreated wells×100%."}, "[5]": {"assay": "X-ray powder diffractometer (XRPD) crystal versus amorphous status", "type": "physicochemical", "protocol": "Crystal versus amorphous status analyses of FL118 versus the formulated FL118 product using X-ray powder diffractometer: The crystal or amorphous status of each formulated FL118-a type of CD complex powder is determined using X-ray powder diffractometer (XRPD). Specifically, about 5 mg samples of each formulated FL118-a type of CD complex powder are spread onto the center of Si-substrate (samples area will be 1 cm in diameter) for XRPD testing. Laboratory XRPD patterns for samples will be collected at 25° C. The diffraction data will be collected over the angular range of 2θ=3°-40° with a step size of 2θ=0.02° and accounting time of 0.12 s/step."}, "[6]": {"test_system": "MM1.s cells"}, "[7]": {"test_system": "cancer cell growth", "details": "cited from earlier work"}, "[8]": {"details": "cited from earlier work"}, "[9]": {"details": "BALE/cj mice; cited from earlier work"}, "[10]": {"test_system": "cancer stem cells (CSCs)", "details": "cited from earlier work"}, "[11]": {"details": "primary BMMNC samples, 48 hours"}, "[12]": {"details": "0.2 mg/kg i.v. daily for five times"}}, "data": [{"smiles": "CC[C@@]1(O)C(=O)OCc2c1cc1n(c2=O)Cc2cc3cc4c(cc3nc2-1)OCO4", "note": "[FL118]", "values": [{"measurement": "combination of FL118 with CAR T-cells, observed versus expected lysis", "setting": "[1]; 10 nM FL118, BLISS model", "value": "synergistic fashion"}, {"measurement": "patient MM cell lysis by CAR T-cells in the presence of BMMSCs", "setting": "[1]; 10 nM FL118, E:T ratio 1:1, 24 hours", "value": "significantly enhanced"}, {"measurement": "anti-MM activity of FL118 alone", "setting": "[1]; 10 nM, 24 hours, patient-derived MM cells", "value": "no/minimal anti-MM activity"}, {"measurement": "BMMSC-mediated protection against daratumumab-induced MM cell lysis", "setting": "[1]; 100 nM FL118, 10 μg/mL daratumumab, 24 hours", "value": "abrogated"}, {"measurement": "efficacy in RR patient samples compared to ND patient samples", "setting": "[1]; 100 nmol/L, 24 hours, 12 RR and 15 ND", "value": "significantly more effective"}, {"measurement": "FL118-induced MM cell lysis", "setting": "[1]; 100 nmol/L, 24 hours, in 15 of 27 patient samples", "value": "≥ 20", "unit": "%"}, {"measurement": "interaction between FL118 and daratumumab in the presence of BMMSCs", "setting": "[1]; observed versus expected lysis", "value": "synergistic"}, {"measurement": "combination effect with bortezomib (Bliss model)", "setting": "[1]; [11]", "value": "additive effects"}, {"measurement": "combination effect with melphalan (Bliss model)", "setting": "[1]; [11]", "value": "synergistic effects"}, {"measurement": "pro-apoptotic signaling", "setting": "[2]; high- and intermediate-susceptible MM1.s and U266, 16 hours", "value": "promotes pro-apoptotic signaling"}, {"measurement": "pro-apoptotic signaling", "setting": "[2]; low-susceptible L363, 16 hours", "value": "not"}, {"measurement": "delay of tumor outgrowth", "setting": "[3]; [12]", "value": "up to 5 weeks"}, {"measurement": "effect on initial tumor volume", "setting": "[3]; [12]", "value": "reduce the initial tumor volume"}, {"measurement": "in vivo anti-MM activity", "setting": "[3]; 0.05, 0.1, 0.2 mg/kg i.v. daily for five times", "value": "dose-dependent"}, {"measurement": "toxic effects on resting T-cells or NK-cells", "setting": "[4]; BMMNC samples from MM or PCL patients, 24 hours", "value": "no toxic effects"}, {"measurement": "toxic effects on PMA-activated CD25+ T-cells", "setting": "[4]; healthy individuals, 48 hours", "value": "no toxic effects"}, {"measurement": "crystal versus amorphous status", "setting": "[5]", "value": "crystal"}, {"measurement": "combination with anti-DR5 antibody Drozitumab, cell lysis", "setting": "[6]; 24 hours, PBMC effectors", "value": "great synergistic activity"}, {"measurement": "microenvironment-induced immune resistance, combination with Drozitumab", "setting": "[6]; presence of BMMSCs", "value": "reversed"}, {"measurement": "concentration range for inhibition of cancer cell growth", "setting": "[7]", "value": "high pM to low nM range"}, {"measurement": "oral availability", "setting": "[8]; in vivo, po", "value": "orally available"}, {"measurement": "pharmacokinetics (PK) profile", "setting": "[8]; intravenous administration, accumulated in tumor, rapidly cleared in blood stream", "value": "favorable"}, {"measurement": "hematopoietic and biochemical toxicities", "setting": "[9]", "value": "very low"}, {"measurement": "expression of CSC markers (ABCG2, ALDH1A1, Oct4)", "setting": "[10]", "value": "downregulates"}, {"measurement": "invasive ability of CSCs", "setting": "[10]", "value": "effectively decreases"}]}]}
